Assay results from patent US7109223B2, “Oxazolidin-2-one and thiazolidin-2-one derivatives for use as EP4 receptor agonists in the treatment of glaucoma” (Merck & Co. Inc., priority 2002, dated 2006).
Entries after “also recorded” stand apart in the source; their conditions may differ.

Experiments:
[1] = test system: RP-1 periosteal cells; assay: EP4 and EP2 mRNA levels in RP-1 periosteal cells (Northern blot); assay type: cell-based, rat; details: RP-1 cells
Protocol: RP-1 periosteal cells are spontaneously immortalized from primary cultures of periosteal cells from tibae of 4-week old Sprague-Dawley rats and are cultured in DMEM (BRL, Gaithersburg, Md.) with 10% fetal bovine serum (JRH Biosciences, Lenexa, Kans.).
(§1) Total RNA is extracted from the tibial metaphysis or diaphysis and calvaria using a guanidinium isothiocyanate-phenol-chloroform method after pulverizing frozen bone samples by a tissue homogenizer. See P. Chomczynski et al., Single-step method of RNA isolation by acid guanidium thiocyanate-phenol-chloroform extraction, Analyt Biochem, 162, 156–159 (1987), which is incorporated by reference herein in its entirety. RNA samples ([…]) are separated on 0.9% agarose/formaldehyde gels and transferred onto nylon membranes (Boehringer Mannheim, Germany). Membranes are prehybridized in Hybrisol I (Oncor, Gaithersburg, Md.) and 0.5 mg/ml sonicated salmon sperm DNA (Boehringer) at 42° C. for 3 hours and are hybridized at 42° C. with rat EP2 and mouse EP4 cDNA probes labeled with [^32P]-dCTP (Amersham, Buckinghamshire, UK) by random priming using the rediprime kit (Amersham). After hybridization, membranes are washed 4 times in 2× SSC+0.1% SDS at room temperature for a total of 1 hour and once with 0.2× SSC+0.1% SDS at 55° C. for 1 hour and then exposed to Kodak XAR 2 film at −70° C. using intensifying screens. After developing the films, bound probes are removed twice with 0.1% SDS at 80° C. and membranes are hybridized with a human GAPDH (Glyceraldehyde 3-Phosphate Dehydrogenase) cDNA probe (purchased from Clontech, Palo Alto, Calif.) for loading control.
PGE2 enhances its own production via upregulation of cyclooxygenase 2 expression in osteoblasts and in bone tissue thus autoamplifying its own effects. PGE2 also increases the levels of EP4 mRNA. RP-1 cells are immortalized from a primary culture of adult rat tibia periosteum is examined. These cells express osteoblast phenotypic markers upon confluence and form mineralized bone matrix when implanted in nude mice. […]

[2] = test system: RCT-3 cells; assay: EP4 mRNA levels in RCT-3 cells (Northern blot); assay type: cell-based, rat
Protocol: (§2) RCT-1 and RCT-3 are clonal cell lines immortalized by SV-40 large T antigen from cells released from fetal rat calvair by a cmbination collagenase/hyaluronidase digestion. RCT-1 cells, derived from cells released during the first 10 minutes of digestion (fraction I), are cultured in RPMI 1640 medium (BRL) with 10% fetal bovine serum and 0.4 mg/ml G418 (BRL). These cells differentiate and express osteoblastic features upon retinoic acid treatment. RCT-3 cells, immortalized from osteoblast-enriched fraction III cells, are cultured in F-12 medium (BRL) with 5% Fetal bovine serum and 0.4 mg/ml G418. TRAB-11 cells are also immortalized by SV40 large T antigen from adult rat tibia and are cultured in RPMI 1640 medium with 10% FBS and 0.4 mg/ml G418. ROS 17/2.8 rat osteosarcoma cells are cultured in F-12 containing 5% FBS. Osteoblast-enriched (fraction III) primary fetal rat calvaria cells are obtained by collagenase/hyaluronidase digestion of calvariae of 19 day-old rat fetuses. See Rodan et al., Growth stimulation of rat calvaria osteoblastic cells by acidic FGF, Endocrinology, 121, 1919–1923 (1987), which is incorporated by reference herein in its entirety. Cells are released during 30–50 minutes digestion (fraction III) and are cultured in F-12 medium containing 5% FBS. […]

[3] = test system: RCT-3 cells; assay: Effect on intracellular cAMP in RCT-3 cells; assay type: cell-based, rat
Protocol: as §2

[4] = test system: bone marrow cells; assay: Localization of EP4 mRNA expression in bone tissue (in situ hybridization); assay type: in vivo, rat; details: rats, single anabolic dose
Protocol: (§3) For mRNA localization experiments, 5-week old Sprague-Dawley rats (Charles River) are euthanized by CO2, their tibiae and calvariae are excised, cleaned of soft tissues and frozen immediately in liquid nitrogen. For EP4 regulation experiments, 6-week old rats are given a single injection of either vehicle (7% ethanol in sterile water) or an anabolic dose of PGE2 (Cayman Chemical, Ann Arbor, Mich.), 3–6 mg/kg in the same vehicle) intraperitoneally. Animals are euthanized at several time points post-injection and their tibiae and calvariae, as well as samples from lung and kidney tissues are frozen in liquid nitrogen.
Frozen tibiae are sectioned coronally at […] thickness and sections are mounted on charged slides (Probe On Plus, Fisher Scientific, Springfield, N.J.) and are kept at −70° C. until hybridization. cRNA probes are labeled with ^35S-UTPgS (ICN, Costa Mesa, Calif.) using a Riboprobe II kit (Promega Madison, Wis.). Hybridization is performed overnight at 50° C. […]
In situ hybridization is used in order to localize cells expressing EP4 in bone. In control experiment (vehicle-injected) rats, low expression of EP4 is detected in bone marrow cells. […]

[5] = test system: TRAB-11 cells; assay: Effect on intracellular cAMP in TRAB-11 cells; assay type: cell-based, rat
Protocol: as §2

[6] = test system: ROS 17/2.8 rat osteosarcoma cells; assay: Effect on intracellular cAMP in ROS 17/2.8 cells; assay type: cell-based
Protocol: as §2

[7] = test system: bone tissue; assay: EP4 and EP2 mRNA levels in vivo in bone tissue (Northern blot); parameters: species or system rat
Protocol: as §3
as §1, with “control. […]” for “control.”

## CCCCC[C@H](O)/C=C/[C@H]1[C@H](O)CC(=O)[C@@H]1C/C=C\CCCC(=O)O [PGE2]
[1]
  EP2 mRNA: not expressed; also recorded: does not induce
[1]; 10^−6M
  EP4 mRNA levels: rapidly increases
  time of peak EP4 mRNA levels after treatment: 2 h
[2]
  EP4 mRNA levels: no effect
[3]
  effect on intracellular cAMP: markedly induced
[4]
  expression of EP4 in bone marrow cells: increased
[5]
  effect on intracellular cAMP: markedly induced
[6]
  effect on intracellular cAMP: no effect
[7]; five-week-old male rats, 3–6 mg/Kg
  time of peak EP4 mRNA levels in the tibial diaphysis after injection: 2 h
[7]; five-week-old male rats, 3–6 mg/Kg, systemic administration
  EP4 mRNA levels in the tibial diaphysis: rapidly increased
[7]; rats
  EP2 mRNA in bone tissue: does not induce
